Measurements taken from patent US11274129B2, “Methods for protein tyrosine phosphorylation profiling with variant SH2 domains” (priority 2016, dated 2022).

What was measured:
[1] = molecular target: VEGFR1-pTyr^1213 peptide DVRpYVNAAKF; settings: peptide VEGFR1-pTyr^1213 DVRpYVNAAKF; read-out: equilibrium dissociation constant (Kd); cited from earlier work
[2] = system: mixture of 54 different pTyr-including peptides derived from 54 TK activation loops; test: Capture of pTyr-including peptides from a mixture of TK activation loop peptides, scheduled PRM; assay type: binding; settings: for number of the 54 pTyr-including peptides captured / detected by PRM: 10 nmole SH2 domain, 10 pmole each peptide
Procedure: Equal molar amounts (10 nmole) of the wild-type (wt) human Src SH2 domain and the DM and TrM human Src SH2 Superbinders (SEQ ID NO: 14 and 5, respectively) expressed with His6 and GST tags were used to capture pTyr-including peptides from a mixture of 54 different pTyr-including peptides (10 pmole each) derived from 54 TK activation loops. The isolated peptides were identified by PRM and quantified based on the corresponding MS peak area. 1.8% of the eluted peptides were injected into a Q-Exactive (Thermo Fisher) preceded with a nano-LC system.
Shown are the amounts of pTyr-including peptides captured, based on the corresponding peak area of PRM signal, by each of the parent human Src SH2 domain and the DM and TrM human Src SH2 Superbinders.

[3] = molecular target: MidT-pTyr^324 peptide EPQpYEEIPIYL; settings: peptide MidT-pTyr^324 EPQpYEEIPIYL; read-out: equilibrium dissociation constant (Kd); cited from earlier work
[4] = molecular target: ShcA-pTyr^317 peptide DPSpYVNVQNL; settings: peptide ShcA-pTyr^317 DPSpYVNVQNL; read-out: equilibrium dissociation constant (Kd); cited from earlier work
[5] = molecular target: EGFR-pTyr^978 peptide PQRpYLVIQGD; settings: peptide EGFR-pTyr^978 PQRpYLVIQGD; read-out: equilibrium dissociation constant (Kd); cited from earlier work
[6] = molecular target: EGFR-pTyr^1110 peptide NPVpYHNQPLN; settings: peptide EGFR-pTyr^1110 NPVpYHNQPLN; read-out: equilibrium dissociation constant (Kd); cited from earlier work
[7] = molecular target: RSKL-pTyr^423 peptide YQHpYDLDLKD; settings: peptide RSKL-pTyr^423 YQHpYDLDLKD; read-out: equilibrium dissociation constant (Kd); cited from earlier work
[8] = molecular target: ShcA-pTyr^239 peptide DHQpYYNDFPG; settings: peptide ShcA-pTyr^239 DHQpYYNDFPG; read-out: equilibrium dissociation constant (Kd); cited from earlier work
Designed peptide GGpYGG = settings: read-out: equilibrium dissociation constant (Kd); cited from earlier work
[9] = BLK (pTyr389) IIDSEpYTAQEGAK, fragment ion b2
[10] = BMX (pTyr566) YVLDDQpYVSSVGTK, fragment ion b2
[11] = BTK (pTyr551) YVLDDEpYTSSVGSK, fragment ion b2
[12] = DDR1 (pTyr796/797) NLYAGDpYpYR, fragment ion b2
[13] = DDR2 (pTyr740/741) NLYSGDpYpYR, fragment ion y6
[14] = EPHA1 (pTyr781) LLDDFDGTpYETQGGK, fragment ion y9
[15] = EPHA2 (pTyr772) VLEDDPEATpYTTSGGK, fragment ion y11
[16] = EPHA3 (pTyr779) VLEDDPEAApYTTR, fragment ion y8
[17] = EPHA6 (pTyr830) VLEDDPEAApYTTTGGK, fragment ion b2
[18] = EPHA8 (pTyr793) VLEDDPDAApYTTTGGK, fragment ion y11
[19] = EPHB1 (pTyr778) YLQDDTSDPTpYTSSLGGK, fragment ion y10
[20] = EPHB2 (pTyr780) FLEDDTSDPTpYTSALGGK, fragment ion Y3
[21] = EPHB3 (pTyr792) FLEDDPSDPTpYTSSLGGK, fragment ion y10
[22] = EPHB4 (pTyr774) FLEENSSDPTpYTSSLGGK, fragment ion y10
[23] = ERBB2 (pTyr877) LLDIDETEpYHADGGK, fragment ion b3
[24] = ERBB3 (pTyr866) QLLpYSEAK, fragment ion y2
[25] = FER (pTyr714) QEDGGVpYSSSGLK, fragment ion y7
[26] = FES (pTyr713) EEADGVpYAASGGLR, fragment ion y8
[27] = FGFR1 (pTyr653/654) DIHHIDpYpYK, fragment ion b6
[28] = FGFR2 (pTyr656/657) DINNIDpYpYK, fragment ion y4
[29] = FGFR3 (pTyr647/648) DVHNLDpYpYK, fragment ion b3
[30] = FGFR4 (pTyr642/643) GVHHIDpYpYK, fragment ion b3
[31] = FRK (pTyr387) VDNEDIpYESR, fragment ion y6
[32] = GSK3 (pTyr279/216) GEPNVSpYICSR, fragment ion y6
[33] = HCK (pTyr411) VIEDNEpYTAR, fragment ion b2
[34] = INSRR (pTyr1145/1146) DVYETDpYpYR, fragment ion y5
[35] = ITK (pTyr512) FVLDDQpYTSSTGTK, fragment ion y11
[36] = JAK1 (pTyr1034/1035) EpYpYTVK, fragment ion y2
[37] = JAK2 (pTyr221) IQDpYHILTR, fragment ion Y3
[38] = JAK3 (pTyr980/981) DpYpYVVR, fragment ion y2
[39] = KIT (pTyr823) NDSNpYVVK, fragment ion b2
[40] = LMTK2 (pTyr295) EDpYIETDDK, fragment ion b2
[41] = LMTK3 (pTyr296/297) EDpYpYLTPER, fragment ion y3
[42] = MERTK (pTyr753/754) IYSGDpYpYR, fragment ion b2
[43] = MET (pTyr1234/1235) EpYpYSVHNK, fragment ion y2
[44] = MUSK (pTyr755/756) NIYSADpYpYK, fragment ion y2
[45] = NTRK1 (pTyr680/681) DIYSTDpYpYR, fragment ion b2
[46] = NTRK2 (pTyr706/707) DVYSTDpYpYR, fragment ion y4
[47] = PGFRB (pTyr857) DSNpYISK, fragment ion y2
[48] = PTK7 (pTyr960/961) DVYNSEpYpYHFR, fragment ion b2
[49] = RET (pTyr905) DVYEEDSpYVK, fragment ion b2
[50] = RON (pTyr1238/1239) EpYpYSVQQHR, fragment ion y4
[51] = ROR1 (pTyr645/646) EIYSADpYpYR, fragment ion y6
[52] = ROR2 (pTyr645/646) EVYAADpYpYK, fragment ion y5
[53] = SRC (pTyr419) LIEDNEpYTAR, fragment ion b2
[54] = SRMS (pTyr380) DDIpYSPSSSSK, fragment ion y8
[55] = TEC (pTyr519) YVLDDQpYTSSSGAK, fragment ion b2
[56] = TIE1 (pTyr1007) GEEVpYVK, fragment ion b2
[57] = TIE2 (pTyr992) GQEVpYVK, fragment ion b2
[58] = TXK (pTyr420) YVLDDEpYVSSFGAK, fragment ion b2
[59] = TYK2 (pTyr1054/1055) AVPEGHEpYpYR, fragment ion y6
[60] = VGFR1 (pTyr1053) NPDpYVR, fragment ion y3
[61] = VGFR2 (pTyr1059) DPDpYVR, fragment ion Y3

Substance: Thr8Val/Cys10Ala: double-mutant human Src SH2 domain
- Kd [1]: 1800 nM
- number of the 54 pTyr-including peptides captured / detected by PRM [2]: 32
- PRM signal peak area [2, 9]: 0
- PRM signal peak area [2, 10]: 0
- PRM signal peak area [2, 11]: 18,246
- PRM signal peak area [2, 12]: 43,173
- PRM signal peak area [2, 13]: 16,232
- PRM signal peak area [2, 14]: 12,335
- PRM signal peak area [2, 15]: 4,858
- PRM signal peak area [2, 16]: 0
- PRM signal peak area [2, 17]: 51,066
- PRM signal peak area [2, 18]: 57,102
- PRM signal peak area [2, 19]: 0
- PRM signal peak area [2, 20]: 98,045
- PRM signal peak area [2, 21]: 14,654
- PRM signal peak area [2, 22]: 0
- PRM signal peak area [2, 23]: 4,642
- PRM signal peak area [2, 24]: 151,587
- PRM signal peak area [2, 25]: 0
- PRM signal peak area [2, 26]: 0
- PRM signal peak area [2, 27]: 28,967
- PRM signal peak area [2, 28]: 39,469
- PRM signal peak area [2, 29]: 64,641
- PRM signal peak area [2, 30]: 29,983
- PRM signal peak area [2, 31]: 0
- PRM signal peak area [2, 32]: 0
- PRM signal peak area [2, 33]: 0
- PRM signal peak area [2, 34]: 7,794
- PRM signal peak area [2, 35]: 0
- PRM signal peak area [2, 36]: 46,193
- PRM signal peak area [2, 37]: 39,232
- PRM signal peak area [2, 38]: 10,521
- PRM signal peak area [2, 39]: 0
- PRM signal peak area [2, 40]: 1,124
- PRM signal peak area [2, 41]: 78,610
- PRM signal peak area [2, 42]: 0
- PRM signal peak area [2, 43]: 70,811
- PRM signal peak area [2, 44]: 0
- PRM signal peak area [2, 45]: 30,204
- PRM signal peak area [2, 46]: 22,794
- PRM signal peak area [2, 47]: 0
- PRM signal peak area [2, 48]: 4,843
- PRM signal peak area [2, 49]: 0
- PRM signal peak area [2, 50]: 17,370
- PRM signal peak area [2, 51]: 27,661
- PRM signal peak area [2, 52]: 60,460
- PRM signal peak area [2, 53]: 0
- PRM signal peak area [2, 54]: 0
- PRM signal peak area [2, 55]: 4,818
- PRM signal peak area [2, 56]: 0
- PRM signal peak area [2, 57]: 0
- PRM signal peak area [2, 58]: 46,128
- PRM signal peak area [2, 59]: 9,679
- PRM signal peak area [2, 60]: 0
- PRM signal peak area [2, 61]: 0
- Kd [3]: 27 nM
- Kd [4]: 390 nM
- Kd [5]: 390 nM
- Kd [6]: 4500 nM
- Kd [7]: 900 nM
- Kd [8]: 100 nM
- Kd (Designed peptide GGpYGG): 25000 nM

Substance: Wild type: wild-type (parent) human Src SH2 domain; SEQ ID NO: 4, His6/GST-tagged form SEQ ID NO: 10 [reference compound]
- Kd [1]: 6500 nM
- number of the 54 pTyr-including peptides captured / detected by PRM [2]: 22
- PRM signal peak area [2, 9]: 0
- PRM signal peak area [2, 10]: 0
- PRM signal peak area [2, 11]: 4,214
- PRM signal peak area [2, 12]: 47,729
- PRM signal peak area [2, 13]: 15,251
- PRM signal peak area [2, 14]: 0
- PRM signal peak area [2, 15]: 0
- PRM signal peak area [2, 16]: 0
- PRM signal peak area [2, 17]: 2,742
- PRM signal peak area [2, 18]: 0
- PRM signal peak area [2, 19]: 0
- PRM signal peak area [2, 20]: 10,833
- PRM signal peak area [2, 21]: 0
- PRM signal peak area [2, 22]: 0
- PRM signal peak area [2, 23]: 0
- PRM signal peak area [2, 24]: 41,881
- PRM signal peak area [2, 25]: 0
- PRM signal peak area [2, 26]: 0
- PRM signal peak area [2, 27]: 28,495
- PRM signal peak area [2, 28]: 51,625
- PRM signal peak area [2, 29]: 103,678
- PRM signal peak area [2, 30]: 29,764
- PRM signal peak area [2, 31]: 0
- PRM signal peak area [2, 32]: 0
- PRM signal peak area [2, 33]: 0
- PRM signal peak area [2, 34]: 0
- PRM signal peak area [2, 35]: 0
- PRM signal peak area [2, 36]: 58,254
- PRM signal peak area [2, 37]: 0
- PRM signal peak area [2, 38]: 23,291
- PRM signal peak area [2, 39]: 0
- PRM signal peak area [2, 40]: 0
- PRM signal peak area [2, 41]: 29,887
- PRM signal peak area [2, 42]: 0
- PRM signal peak area [2, 43]: 26,824
- PRM signal peak area [2, 44]: 47,647
- PRM signal peak area [2, 45]: 21,736
- PRM signal peak area [2, 46]: 39,632
- PRM signal peak area [2, 47]: 0
- PRM signal peak area [2, 48]: 0
- PRM signal peak area [2, 49]: 0
- PRM signal peak area [2, 50]: 5,434
- PRM signal peak area [2, 51]: 32,356
- PRM signal peak area [2, 52]: 85,894
- PRM signal peak area [2, 53]: 0
- PRM signal peak area [2, 54]: 0
- PRM signal peak area [2, 55]: 0
- PRM signal peak area [2, 56]: 0
- PRM signal peak area [2, 57]: 0
- PRM signal peak area [2, 58]: 1,519
- PRM signal peak area [2, 59]: 11,551
- PRM signal peak area [2, 60]: 0
- PRM signal peak area [2, 61]: 0
- Kd [3]: 130 nM
- Kd [4]: 2200 nM
- Kd [5]: 3700 nM
- Kd [6]: 6900 nM
- Kd [7]: 3900 nM
- Kd [8]: 700 nM
- Kd (Designed peptide GGpYGG): > 30000 nM
